Data from PMC12292521, “Discovery of a Potent Antimicrobial Peptide Through Rational Design: A New Frontier in Pathogen Control” (Biomolecules, 2025).
Values after ≈ are worked out from the molar mass of the structure shown. Where two headings read alike, the source gives them in different places. Peptide text beside a SMILES is read from it.

Tests used:
[1] = tested on: Staphylococcus epidermidis ATCC 12228; assay: Quantitative suspension test, bactericidal activity, BS EN 1276:2019; format: cell-based; set-up: key to Bactericidal activity verdict: Active: For bacteria: ACTIVE if log R ≥ 5 according to BS EN 1276:2019; Not active: For bacteria: ACTIVE if log R ≥ 5 according to BS EN 1276:2019; conditions: 60 min, 37 °C, BSA 0.3 g/L
Excerpt: (§1) The method is based on the suspension test according to BS EN 1276:2019, which specifies a quantitative suspension analysis for the evaluation of the bactericidal activity of chemical disinfectants and antiseptics used in food, industrial, domestic, and institutional areas against a panel of microorganisms under conditions that more closely simulate practical use. Briefly, S. aureus ATCC 6538, P. aeruginosa ATCC 15442, and Staphylococcus epidermidis ATCC 12228 were used as test organisms at a bacterial concentration of 1.0 × 10^8 colony-forming units (CFU) per mL (CFU/mL). In the test, BSA (Bovine Serum Albumin) (0.3 g/L) was used as an interfering substance to mimic clean conditions. […] The reaction mixture was incubated at 37 °C for 60 min before transferring each sample to a tube containing a neutralizer solution consisting of 30 g/L polysorbate 80, 1 g/L sodium thiosulfate, 3 g/L lecithin, 1 g/L tryptone, 8.5 g/L NaCl, 100 mL/L phosphate buffer and water. The negative control (untreated cells) was prepared using PBS instead of biocides. The solutions were then plated onto Tryptone Soy Agar (TSA) and incubated at 37 °C for 48 h to determine the logarithmic CFU/mL reduction, according to the following Equation:(2) log R = log (N0) − log (Na) where R refers to the reduction in viability, N refers to the number of CFU/mL in the test mixture at the beginning of the contact time, and Na refers to the number of CFU/mL in the test mixture at the end of the contact time. […] The test method and the minimum requirements for fungicidal activity of chemical disinfectant and antiseptic products were performed according to BS EN 1650:2019. The fungicidal activity was studied using the vegetative cells of Candida albicans ATCC 10231 and the spores of Aspergillus brasiliensis ATCC 16404 as test organisms. […] The mixture was maintained at 37 °C for a contact time of 60 min. At the end of this contact time, an aliquot was taken, and the fungicidal activity was immediately neutralized with a solution consisting of 30 g/L polysorbate 80, 1 g/L sodium thiosulfate, 3 g/L lecithin, 1 g/L tryptone, 8.5 g/L NaCl, 100 mL/L phosphate buffer and water. The samples were then plated onto malt extract agar (MEA) and incubated at 30 °C for 48 h to determine the numbers of surviving fungi as the logarithmic CFU/mL reduction, calculated according to Equation (2).

[2] = tested on: Staphylococcus aureus ATCC 6538; assay: as above; format: cell-based; set-up: key to Bactericidal activity verdict: Active: For bacteria: ACTIVE if log R ≥ 5 according to BS EN 1276:2019; Not active: For bacteria: ACTIVE if log R ≥ 5 according to BS EN 1276:2019; conditions: 60 min, 37 °C, BSA 0.3 g/L
Excerpt: as §1

[3] = tested on: Pseudomonas aeruginosa ATCC 15442; assay: as above; format: cell-based; set-up: key to Bactericidal activity verdict: Active: For bacteria: ACTIVE if log R ≥ 5 according to BS EN 1276:2019; Not active: For bacteria: ACTIVE if log R ≥ 5 according to BS EN 1276:2019; conditions: 60 min, 37 °C, BSA 0.3 g/L
Excerpt: as §1

[4] = tested on: Staphylococcus aureus (MRSA); format: cell-based; conditions: for MIC: broth microdilution, 96-well, RKW 1-75 μM
Description: (§2) Therefore, the minimum inhibitory concentration (MIC) and MBC were evaluated. […] Subsequently, the antibiofilm activity of the peptide was tested according to Festa et al.. Specifically, two different concentrations of peptide were used, corresponding to ½ and ¼ of the estimated MIC value, which guarantee the optimal bacterial growth conditions necessary to allow biofilm production. Biofilm production (%) was calculated based on Optical Density (measured at 630 nm) outputs, compared to the control group.

[5] = tested on: Enterococcus faecium (VREfm); format: cell-based; conditions: broth microdilution, 96-well, RKW 1-75 μM
Description: as §2

[6] = tested on: Acinetobacter baumannii (CRAB); format: cell-based
Description: as §2

P. aeruginosa biofilm = assay: Antibiofilm activity (crystal violet); format: cell-based, Pseudomonas aeruginosa; conditions: RKW at ½ and ¼ MIC (10 and 5 μM); OD 630 nm vs control; three independent experiments; ANOVA p < 0.05; greatest inhibition at ¼ MIC
Description: as §2
To compare the percentages of biofilm production across different samples, a one-way analysis of variance (ANOVA) was conducted using Prism v. 10.0 (GraphPad, Graph-Pad Software, La Jolla, CA, USA). Significant differences between sample pairs were identified with Tukey’s post hoc test (p < 0.05).

[7] = inoculum 5 × 10^3 CFU/mL (3 Log)
[8] = inoculum 5 × 10^5 CFU/mL (5 Log)

CC[C@H](C)[C@H](NC(=O)[C@H](Cc1c[nH]c2ccccc12)NC(=O)[C@H](CCCCN)NC(=O)[C@@H](N)CCCNC(=N)N)C(=O)N[C@@H](CC(C)C)C(=O)N[C@@H](CCCCN)C(=O)N[C@@H](Cc1c[nH]c2ccccc12)C(=O)N[C@@H](CC(C)C)C(=O)N[C@@H](CCCNC(=N)N)C(=O)N[C@H](C(=O)N[C@@H](Cc1c[nH]c2ccccc12)C(=O)N[C@@H](CCCCN)C(=O)N[C@@H](CCCCN)C(N)=O)[C@@H](C)O [RKW] (H-RKWILKWLRTWKK-NH2; N-terminus assumed)
Bactericidal activity verdict ([1]; RKW 5 µM): Na = 3.70 × 10^2 log Na = 2.57 log R = 4.71 Not active
Na (CFU/mL at the end of the contact time) ([1]; RKW 5 µM): 3.70 × 10^2 CFU/mL
Bactericidal activity verdict ([1]; RKW 10 µM): Na = 2.40 × 10^2 log Na = 2.38 log R = 4.90 Not active
Na (CFU/mL at the end of the contact time) ([1]; RKW 10 µM): 2.40 × 10^2 CFU/mL
Bactericidal activity verdict ([1]; RKW 20 µM): Na = 1.60 × 10^2 log Na = 2.20 log R = 5.08 Active
Na (CFU/mL at the end of the contact time) ([1]; RKW 20 µM): 1.60 × 10^2 CFU/mL
Bactericidal activity verdict ([1]; RKW 50 µM): Na = 1.60 × 10^2 log Na = 2.20 log R = 5.08 Active
Na (CFU/mL at the end of the contact time) ([1]; RKW 50 µM): 1.60 × 10^2 CFU/mL
Bactericidal activity verdict ([1]; RKW 100 µM): Na = 1.60 × 10^2 log Na = 2.20 log R = 5.08 Active
Na (CFU/mL at the end of the contact time) ([1]; RKW 100 µM): 1.60 × 10^2 CFU/mL
Bactericidal activity verdict ([2]; RKW 5 µM): Na = 1.11 × 10^5 log Na = 5.10 log R = 2.25 Not active
Na (CFU/mL at the end of the contact time) ([2]; RKW 5 µM): 1.11 × 10^5 CFU/mL
Bactericidal activity verdict ([2]; RKW 10 µM): Na = 5.10 × 10^4 log Na = 4.71 log R = 2.59 Not active
Na (CFU/mL at the end of the contact time) ([2]; RKW 10 µM): 5.10 × 10^4 CFU/mL
Bactericidal activity verdict ([2]; RKW 20 µM): Na= 1.47 × 10^4 log Na = 4.20 log R = 3.13 Not active
Na (CFU/mL at the end of the contact time) ([2]; RKW 20 µM): 1.47 × 10^4 CFU/mL
Na (CFU/mL at the end of the contact time) ([2]; RKW 50 µM): 1.47 × 10^4 CFU/mL
Na (CFU/mL at the end of the contact time) ([2]; RKW 100 µM): 1.47 × 10^4 CFU/mL
Bactericidal activity verdict ([3]; RKW 5 µM): Active
Na (CFU/mL at the end of the contact time) ([3]; RKW 5 µM): < 1.40 × 10^2 CFU/mL
Bactericidal activity verdict ([3]; RKW 10 µM): Active
Na (CFU/mL at the end of the contact time) ([3]; RKW 10 µM): < 1.40 × 10^2 CFU/mL
Bactericidal activity verdict ([3]; RKW 20 µM): Active
Na (CFU/mL at the end of the contact time) ([3]; RKW 20 µM): < 1.40 × 10^2 CFU/mL
Bactericidal activity verdict ([3]; RKW 50 µM): Active
Na (CFU/mL at the end of the contact time) ([3]; RKW 50 µM): < 1.40 × 10^2 CFU/mL
Bactericidal activity verdict ([3]; RKW 100 µM): Active
Na (CFU/mL at the end of the contact time) ([3]; RKW 100 µM): < 1.40 × 10^2 CFU/mL
MBC [4]: 50 µM (≈ 92.1 µg/mL)
MIC [4, 7]: 50 µM (≈ 92.1 µg/mL)
MIC [4, 8]: 50 µM (≈ 92.1 µg/mL)
MIC [5, 7]: 20 µM (≈ 36.8 µg/mL)
MIC [5, 8]: 20 µM (≈ 36.8 µg/mL)
MBC [6]: 50 µM (≈ 92.1 µg/mL)
Biofilm production (P. aeruginosa biofilm): significantly inhibited the biofilm production
